Experimental findings from ChEMBL document CHEMBL1201862, “PubChem BioAssay data set” (2004) are described below.

Some test systems named below: COLO 205; 786-0; MDA-N; EKVX; SN12C; KM12; MOLT-4; NCI-H522; MCF7; SF-295; A549; LOX IMVI; Hs-578T; ACHN; SNB-75; SF-539; HL-60; MDA-MB-435; HOP-62; OVCAR-8.
Experiment in all cases: NCI anticancer screen, dose series, 48 h

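These data come from cells grown in 96-well plates and exposed to compound for 48 hours at five concentrations. Abbreviation: GI50, concentration required for 50% inhibition of growth.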 Active and inactive are the calls of the source. Cut-off read from the data, not from the text of the source: active = GI50 up to about 1.1 µM and inactive = higher.

`O=C1/C(=C\c2ccc(Cl)cc2Cl)Sc2scc(-c3cccc([N+](=O)[O-])c3)[n+]21`: the GI50 is 0.59 µM (active) in the assay with COLO 205; 3.39 µM (inactive) in the assay on 786-0; 4.28 µM (inactive) in the assay on MDA-N; 7.57 µM (inactive) with EKVX; 5.33 µM (inactive) in the assay on SN12C; 11.6 µM (inactive) with KM12. Besides, the GI50 is 1.45 µM (inactive) in the assay with MOLT-4; 1.43 µM (inactive) in the assay with NCI-H522; 3.98 µM (inactive) with MCF7; 24.9 µM (inactive) in the assay on SF-295; 18.1 µM (inactive) in the assay with A549; 1.55 µM (inactive) with LOX IMVI. The GI50 in the assay on Hs-578T is 24.7 µM (inactive); with ACHN, 3.33 µM (inactive); in the assay with SNB-75, 19.9 µM (inactive); in the assay on SF-539 it was 1.81 µM (inactive); in the assay on HL-60 it was 0.49 µM (active); with MDA-MB-435, 10 µM (inactive). In addition, the GI50 is 16.5 µM (inactive) in the assay on HOP-62 and 8.15 µM (inactive) in the assay with OVCAR-8.

In the case of `Cc1ccc(/C=N/Nc2cc(C)c3cccc(C)c3n2)s1`, the GI50 in the assay with COLO 205 was 6.98 µM (inactive); in the assay with 786-0 it was 2.74 µM (inactive); in the assay on MDA-N it was 8.89 µM (inactive); in the assay with EKVX, 13.5 µM (inactive); in the assay on SN12C, 9.08 µM (inactive); in the assay with KM12, 7.31 µM (inactive). For the same compound, the GI50 is 3.21 µM (inactive) with MOLT-4; 2.81 µM (inactive) with NCI-H522; 4.11 µM (inactive) with MCF7; 7.1 µM (inactive) in the assay with SF-295; 6.31 µM (inactive) in the assay with A549; 1.63 µM (inactive) with LOX IMVI. The GI50 in the assay with Hs-578T was 13.9 µM (inactive); with ACHN, 16.5 µM (inactive); in the assay with SNB-75 it was 11.9 µM (inactive); with SF-539 it was 13.9 µM (inactive); with HL-60 it was 3.28 µM (inactive); in the assay on MDA-MB-435, 7.14 µM (inactive). The values for the GI50 with HOP-62 and with OVCAR-8 were 11.8 µM (inactive) and 10.4 µM (inactive), respectively.

In the case of `NCCCCC(N)C(=O)NCCNc1ccc(NCCNC(=O)C(N)CCCCN)c2c1C(=O)c1ccccc1C2=O` (stereo not drawn), the GI50 was > 59.8 µM (inactive) with COLO 205; 7.41 µM (inactive) with 786-0; > 100 µM (inactive) in the assay with MDA-N; > 100 µM (inactive) in the assay with EKVX; 4.11 µM (inactive) in the assay with SN12C; > 81.3 µM (inactive) in the assay on KM12. Besides, the GI50 was 4.39 µM (inactive) with MOLT-4; 3.56 µM (inactive) with NCI-H522; > 100 µM (inactive) in the assay on MCF7; > 100 µM (inactive) in the assay with SF-295; 63 µM (inactive) in the assay on A549; 9.35 µM (inactive) with LOX IMVI. The GI50 was 8.38 µM (inactive) in the assay on Hs-578T; 35.6 µM (inactive) with ACHN; 43.2 µM (inactive) in the assay on SNB-75; 7.62 µM (inactive) with SF-539; > 95.5 µM (inactive) in the assay with HL-60; 98.6 µM (inactive) in the assay on MDA-MB-435. The GI50 in the assay with HOP-62 is 9.46 µM (inactive); with OVCAR-8, 5.9 µM (inactive).

As for `CC(=O)O[C@H]1C(=O)[C@@]2(C)[C@H]([C@H](OC(=O)c3ccccc3)[C@]3(O)C[C@H](OC(=O)[C@H](O)[C@@H](NC(=O)c4ccccc4)c4ccccc4C)C(C)=C1C3(C)C)[C@]1(OC(C)=O)CO[C@@H]1C[C@@H]2O`, the GI50 in the assay on COLO 205 is 0.136 µM (active); in the assay with 786-0, 1.64 µM (inactive); in the assay on MDA-N it was 0.0632 µM (active); in the assay with EKVX, 7.4 µM (inactive); in the assay on SN12C, 2.11 µM (inactive); in the assay with KM12 it was 0.163 µM (active). Besides, the GI50 is 0.411 µM (active) in the assay with MOLT-4; 0.556 µM (active) with NCI-H522; 0.113 µM (active) in the assay with MCF7; 1.16 µM (inactive) with SF-295; 1.7 µM (inactive) in the assay on A549; 0.631 µM (active) in the assay on LOX IMVI. Moreover, the GI50 in the assay on Hs-578T was 0.222 µM (active); in the assay on ACHN, 2.44 µM (inactive); in the assay with SNB-75 it was 0.767 µM (active); in the assay with SF-539, 0.433 µM (active); with HL-60, 0.0659 µM (active); with MDA-MB-435 it was 0.07 µM (active). The GI50 with HOP-62 was 0.326 µM (active); in the assay with OVCAR-8, 1.41 µM (inactive).

Turning to `C#CCCOC(=O)CC1=C(C)/C(=C/c2ccc([S+](C)[O-])cc2)c2ccc(F)cc21` (stereo not drawn), the GI50 with COLO 205 was 15.2 µM (inactive); in the assay on 786-0, 19.8 µM (inactive); in the assay with MDA-N it was 6.67 µM (inactive); with EKVX it was 22.8 µM (inactive); in the assay with SN12C, 19.5 µM (inactive); in the assay on KM12, 10.8 µM (inactive). The GI50 was 17.5 µM (inactive) in the assay on MOLT-4; 17.3 µM (inactive) in the assay with NCI-H522; 19.4 µM (inactive) with MCF7; 13.9 µM (inactive) with SF-295; 14.9 µM (inactive) with LOX IMVI; 13.5 µM (inactive) in the assay with Hs-578T. The GI50 is 19.7 µM (inactive) with ACHN; 16.3 µM (inactive) with SNB-75; 16.2 µM (inactive) with SF-539; 5.79 µM (inactive) in the assay on HL-60; 4.67 µM (inactive) in the assay with MDA-MB-435; 27.2 µM (inactive) in the assay on HOP-62. In addition, the GI50 with OVCAR-8 was 19.7 µM (inactive).

`CSc1nc(SC)c2c(CN=[N+]=[N-])c(Br)n(Cc3ccccc3)c2n1`: the GI50 is > 100 µM (inactive) with COLO 205; > 100 µM (inactive) in the assay on 786-0; 99.3 µM (inactive) with MDA-N; > 100 µM (inactive) in the assay on EKVX; > 100 µM (inactive) in the assay on SN12C; > 100 µM (inactive) with KM12. Further, the GI50 in the assay on MOLT-4 is > 100 µM (inactive); with NCI-H522 it was > 100 µM (inactive); in the assay on MCF7 it was > 100 µM (inactive); with SF-295 it was 36.1 µM (inactive); with A549, > 100 µM (inactive); in the assay with LOX IMVI, 66.1 µM (inactive). Besides, the GI50 is 53.1 µM (inactive) in the assay on Hs-578T; > 100 µM (inactive) with ACHN; 51.3 µM (inactive) in the assay on SNB-75; 32.8 µM (inactive) with SF-539; 62.1 µM (inactive) in the assay on HL-60; 55.7 µM (inactive) with MDA-MB-435. Further, the GI50 was 92.3 µM (inactive) with HOP-62 and > 100 µM (inactive) with OVCAR-8.

`CCOC(=O)c1c(SC(=O)c2ccc(C(C)(C)C)cc2)n(-c2ccccc2)c(=S)n(-c2ccccc2)c1=O`: the GI50 in the assay on COLO 205, with 786-0, in the assay on MDA-N, in the assay on EKVX, with SN12C and in the assay on KM12 was > 100 µM (inactive) each time. For the same compound, the GI50 in the assay on MOLT-4 was 59.4 µM (inactive); in the assay with NCI-H522, > 100 µM (inactive); in the assay with MCF7, > 100 µM (inactive); in the assay on SF-295, > 100 µM (inactive); in the assay with A549, > 100 µM (inactive); in the assay with LOX IMVI, > 100 µM (inactive). Besides, the GI50 in the assay with Hs-578T, in the assay with ACHN, with SNB-75, with SF-539, in the assay with HL-60 and in the assay with MDA-MB-435 was > 100 µM (inactive) throughout. For the same compound, the GI50 with HOP-62 and in the assay with OVCAR-8 was > 100 µM (inactive) throughout.

Regarding `Nc1ncnc2c1ccn2CC#CCO`, the GI50 with COLO 205, with 786-0, in the assay with MDA-N, in the assay with EKVX, in the assay with SN12C and in the assay on KM12 was > 100 µM (inactive) each time. Besides, the GI50 in the assay on MOLT-4, in the assay on NCI-H522, in the assay on MCF7, in the assay on SF-295, in the assay on A549 and in the assay on LOX IMVI was > 100 µM (inactive) in each case. Besides, the GI50 in the assay on Hs-578T is > 100 µM (inactive); with ACHN, > 100 µM (inactive); in the assay with SNB-75 it was > 100 µM (inactive); in the assay on SF-539, > 100 µM (inactive); with HL-60, 93.8 µM (inactive); with MDA-MB-435, > 100 µM (inactive). The GI50 in the assay with HOP-62 and with OVCAR-8 was > 100 µM (inactive) in each case.

`Cc1c2cc[n+](C)cc2c(C)c2c1oc1ccccc12`: the GI50 in the assay on COLO 205 was 3.51 µM (inactive); with 786-0 it was 1.17 µM (inactive); in the assay with MDA-N, 11 µM (inactive); in the assay with EKVX it was 5.5 µM (inactive); with SN12C, 0.475 µM (active); in the assay with KM12 it was 1.62 µM (inactive). Further, the GI50 in the assay on MOLT-4 is 2.74 µM (inactive); in the assay on NCI-H522 it was 1.95 µM (inactive); with MCF7 it was 6.37 µM (inactive); in the assay on SF-295, 1.69 µM (inactive); with A549 it was 1.95 µM (inactive); with LOX IMVI, 11.4 µM (inactive). The GI50 is 0.54 µM (active) in the assay with Hs-578T; 39.6 µM (inactive) in the assay on ACHN; 1.98 µM (inactive) in the assay on SNB-75; 2.24 µM (inactive) in the assay on SF-539; 12 µM (inactive) in the assay on HL-60; 7.83 µM (inactive) in the assay on MDA-MB-435. Further, the GI50 with HOP-62 is 2.06 µM (inactive); in the assay on OVCAR-8, 1.67 µM (inactive).

Regarding `C/C(=N\NC(=S)N1CCC1)c1ccccn1`, the GI50 in the assay with COLO 205 is 0.01 µM (active); in the assay with 786-0 it was < 0.0239 µM (active); with MDA-N it was 0.0682 µM (active); in the assay with EKVX it was 0.0658 µM (active); with KM12, 0.0287 µM (active); with MOLT-4 it was 0.01 µM (active). For the same compound, the GI50 is < 0.0497 µM (active) in the assay with NCI-H522; 0.0015 µM (active) with MCF7; 0.01 µM (active) with SF-295; 0.0246 µM (active) in the assay with A549; < 0.0119 µM (active) in the assay on LOX IMVI; 4.06 µM (inactive) in the assay on Hs-578T. Besides, the GI50 is 0.01 µM (active) in the assay on ACHN; 0.838 µM (active) with SNB-75; 0.114 µM (active) with SF-539; 0.01 µM (active) in the assay with HL-60; 0.0264 µM (active) in the assay with MDA-MB-435; 0.0181 µM (active) with HOP-62. Also, the GI50 with OVCAR-8 is 0.01 µM (active).
